test system: AMPK; test: AMPK activation (pT172-AMPK immunoassay) in C2C12 myocytes; type: cell-based, mouse; settings: 1 mM AICAR, 30 min, average over ten independent assays, 95% CI=1.26-2.21
Description: The Model—The C2C12 myocyte model is commonly used to study the potential effects of compounds on muscle tissue in vitro.
Cell culture—Mouse C2C12 myoblasts were obtained from American Type Culture Collection (Manassas, Va.), and were maintained in Dulbecco's modified Eagle's medium (DMEM) supplemented with 10% fetal bovine serum at 37° C. under a humidified atmosphere of 5% CO2.
C2C12 cells were seeded at an initial density of 6×10^4 cells/cm^2 in 24-well plates. For two days, the cells were allowed grow to reach confluence. Following confluence, the cells were forced to differentiate into myocytes by culturing in DMEM supplemented with 2% horse serum for seven days.
Treatment with AICAR—On Day 8 to 10 post differentiation, C2C12 myocytes were incubated in serum-free DMEM plus 0.5% BSA (bovine serum albumin) for three hours. Next, AICAR (Cell Signal, Danvers, Mass.) was dissolved in phosphate buffered saline (PBS) and added to the culture medium to achieve concentrations of 1 mM per column (4 replicates) for 30 min at 37° C.
Measuring activated AMPKα—pT^172-AMPK was quantified using the Biosource AMPKa Immunoassay Kit (Camarillo, Calif.) without modification. Protein content of the cell lysates was determined with the Active Motif fluorescent protein assay reagent (Carlsbad Calif., Hoefelschweiger, B. K., Duerkop, A., and Wolfbeis, O, S, Novel type of general protein assay using a chromogenic and fluorogenic amine-reactive probe. Anal Biochem 2005, 344, 122-9). A Packard Fluorocount spectrofluorometer (Model#BF10000, Meridan, Conn.) was used for protein determination and a MEL312e BIO-KINETICS READER (Bio-Tek Instruments, Winooski, Vt.) was used for quantification of pT^172-AMPK.
Calculation of relative activation of AMPK —pT^172-AMPK was computed per mg lysate protein and then normalized to the dimethyl sulfoxide (DMSO) negative controls. For statistical comparisons, 95% confidence intervals were computed (Excel, Microsoft, Redman, Wash.).
The Model—The C2C12 murine myocyte model as described in Example 1 was used.
Chemicals, Cell Culture and Treatment—Chemicals, cell culture procedures, methods and statistical procedures used were as noted in Example 1.
Test Materials—Phytochemicals or botanical extracts as described in Table 1 were used as the test materials and dosed at 25 μglmL. The concentration for the positive control AICAR run concurrently was 1.0 mM (338 μg/mL).
The Model—The C2C12 murine myocyte model as described in Example 1 was used in this example.
Test Materials—Botanical extracts Ginger Extract (Suan Farma, Hackensack, N.J.), Ginger Root Powder (BI Nutraceuticals, Long Beach, Calif.), and Ginger Powdered Extract 6:1, Zingiber officinale (Draco, San Jose, Calif.) were used as the test materials and dosed at 25 μg/mL. The concentration for the positive control AICAR was 1.0 mM (338 μg/mL).

Compound	increase of pT172-AMPK relative to the DMSO negative controls [fold]
NC(=O)c1ncn([C@@H]2O[C@H](CO)[C@@H](O)[C@H]2O)c1N [AICAR, 5-Aminoimidazole-4-carboxamide ribonucleoside, reference compound]	1.67

same assay, conditions: test material 25 μg/mL, pT172-AMPK per mg lysate protein normalized to DMSO negative controls

Compound	pAMPK/AMPK.
CNCC(O)c1ccc(O)cc1 (stereo not drawn) [Synephrine]	2.64
Chromium polynicotinate	1.59
COc1ccc2cc3[n+](cc2c1OC)CCc1cc2c(cc1-3)OCO2 [Berberine]	1.26
CC(C)=CCC1=C(O)C(C(=O)CC(C)C)=C(O)C(CC=C(C)C)(CC=C(C)C)C1=O [Lupulone]	1.63
Oc1ccc(C=Cc2cc(O)cc(O)c2)cc1 [Resveratrol]	1.25
CC(C)C[C@H](N)C(=O)O [L-Leucine]	1.29
COc1cc(O)c(CC=C(C)C)c(O)c1C(=O)/C=C/c1ccc(O)cc1 [Xanthohumol]	1.55
CCCCC[C@H](O)CC(=O)CCc1ccc(O)c(OC)c1 [6-Gingerol]	3.52
